From publication PMC6271273, “Chemo-Enzymatic Synthesis of Silybin and 2,3-Dehydrosilybin Dimers” (Molecules, 2014)
Marks after values point to notes of the source that are not given here.

Assays:
[1] = Stability of dimers in buffers, HPLC; format: physicochemical; details: PBS and phosphate buffers (0.2 M, pH 7.4), longer than 24 h
Protocol: The stability of the dimers in PBS buffer and phosphate buffer (0.2 M, pH 7.4) was monitored using an HPLC method. […] The chromatography was carried out in a Shimadzu Prominence UFLC system (Kyoto, Japan) consisting of a DGU-20A mobile phase degasser, two LC-20AD solvent delivery units, SIL-20ACHT cooling autosampler, CTO-10AS column oven and SPD-M20A (PDA, photodiode array detector). A Chromolith Performance RP-18e monolithic column (100 × 3 mm i.d.) and guard column (5 × 4.6 mm i.d., both Merck) were used. The PDA data were acquired in the 200–450 nm range and the 285 signal was extracted. Gradient elution: mobile phase A: 0.1% formic acid, 10% methanol in water (v/v/v); mobile phase B: 0.1% formic acid in methanol (v/v); gradient, 0–1 min, 20% B; 1–8 min, 20%–90% B; 8–9 min, 90% B, 9–10 min, 90%–20% B. The flow rate was 1.2 mL/min at 25 °C.

[2] = DPPH radical scavenging assay; format: biochemical; details: for DPPH [% of inhibition]: 33 µM test compound, n = 4, absorbance at 517 nm after 30 min
Protocol: Antiradical activity was evaluated spectrophotometrically as the ability of the tested substances to reduce the 1,1-diphenyl-2-picrylhydrazyl (DPPH) radical as described previously with minor modifications. Briefly, a solution of the tested substance (10 µL, final concentration 0–540 µM) were mixed with a freshly prepared methanolic DPPH solution (290 µL, final concentration 20 µM) in a microtiter plate well. After 30 min, absorbance at 517 nm was measured, percentages of inhibition were calculated using the negative control and for selected compounds the IC50 values were obtained from the inhibition curves.

[3] = Square wave voltammetry (in situ / ex situ) at pyrolytic graphite electrode; format: physicochemical; details: for Oxidation potential Ep1 / Oxidation potential Ep2: SWV, vs. Ag/AgCl/3 M KCl, pH 7.4, n = 3; for Oxidation potential Ep1: ascribed to oxidation of C-20 OH; for Oxidation potential Ep2: oxidation of resorcinol moiety (ring A)
Protocol: The monomeric flavonolignans and their dimers were analyzed using in situ voltammetry with the working electrode (PGE: pyrolytic graphite electrode) dipped in the supporting electrolyte containing the analytes and/or ex situ voltammetric analysis (adsorptive transfer, AdT technique). For this purpose, the PGE was first dipped into a 5 µL aliquot of the studied sample. After an accumulation period (30 s), the electrode was washed with deionized water and placed in an electrochemical cell containing pure supporting electrolyte. Square-wave voltammetry (SWV) and cyclic voltammetry (CV) were performed at room temperature with a µAutolab III analyzer (EcoChemie, Utrecht, The Netherlands) in a three-electrode setup (Ag/AgCl 3M KCl electrode as a reference and a platinum wire as the auxiliary electrode). SWV parameters: frequency: 200 Hz, from 0 V to +1.5 V, concentration of tested compounds (50 µM), supporting electrolyte: Britton-Robinson buffer, pH 7.4. The flavonolignans analyzed were dissolved in methanol as a stock solution of 1 mg mL^−1 (stored in a fridge in the dark), and diluted with the supporting electrolyte and/or 0.2 M acetate buffer (pH 5) for in situ and/or ex situ voltammetry. Ex situ a.c. voltammetry (out-of-phase) was carried out with a hanging mercury drop electrode (HMDE) according to the previously published paper. In this case, the flavonolignans (50 µM) were adsorbed from 0.2 M acetate buffer (pH 5) for 30 s. For current responses and potentials (Ep), the standard deviations (S.D.) were less than ±3.55% and ±3 mV for all experiments, respectively.

HepG2 cells = experiment: Cytotoxicity, MTT test, HepG2; format: cell-based; details: Homo sapiens, 24 h incubation, read-out: IC50 viability (MTT-reducing ability) HepG2
Protocol: (§1) All the cells were cultured in a humidified atmosphere with 5% (v/v) CO2 at 37 °C and subcultured before conﬂuence. Human Umbilical Vein Endothelial Cells (HUVEC) were isolated from umbilical cords of healthy non-smoker women (18–35 years) as described previously, cultivated in gelatin-coated flasks in EGM and used in passages 2–6. Primary Normal human Adult epidermal Keratinocytes (NAK) were isolated from normal skin obtained from excessive tissue removed during abdominoplasty or mammoplasty of healthy adult patients as described in [36, 50], cultivated in EpiLife medium with the addition of HKGS. Mouse fibroblasts (BALB/c 3T3 cells) were purchased from the European Collection of Cell Cultures (ECACC, Salisbury, UK) and were grown in DMEM supplemented with heat-inactivated FCS (5%, v/v) and newborn FCS, streptomycin […] and glutamine (4 mM). Hepatocyte carcinoma HepG2 cells (No. 85011430, ECACC) were cultured at 37 °C in DMEM supplemented with 2 mM L-glutamine, 1% non-essential amino acids, 100 U/mL penicillin, […] and 10% fetal bovine serum (Invitrogen, Carlsbad, CA, USA).
(§2) The cells were plated into 96-well cell culture plates and grown to near confluence. The tested compounds were placed in the respective fresh medium in serial dilutions (100 µL/well) and incubated with the cells for 24 h. After incubation, the medium was removed, the cells were washed with PBS, fresh medium containing 1 mg/mL of MTT was added and the plates were incubated for a further 3 h (37 °C). The resulting formazan was dissolved in 50 µL of 1% NH3 in DMSO, absorbance was read at 540 nm and IC50 values were obtained graphically from the dependence of cell viability on the concentration of the tested compound.

[4] = Cytotoxicity, MTT test, range over all cells other than NAK; format: cell-based; details: human (HUVEC, HepG2) and mouse (BALB/c 3T3), all cells used other than NAK (HUVEC, BALB/c 3T3, HepG2), read-out: Cytotoxicity IC50, range over cell types
Protocol: as §1, §2

rat liver microsomes = experiment: Inhibition of microsomal lipid peroxidation induced by tert-butyl hydroperoxide (TBARS); format: biochemical; details: rat liver microsomes, 1 mM tert-butyl hydroperoxide, TBARS
Protocol: Microsomes were prepared from rat liver homogenate as described previously and resuspended in 50 mM Tris-HCl buffer with 100 mM KCl and 0.1 mM EDTA (pH 7.4). The protein concentration in the stock microsomal suspension was determined using the Bradford method to be typically ca 30 mg protein/mL. This stock suspension was stored at −80 °C and diluted to 0.625 mg protein/mL using PBS before use. 0.4 mL of the diluted microsomal suspension was then mixed with the compounds tested (final concentration 10–200 µM in 0.01 mL DMSO) and incubated for 10 min at 37 °C. tert-Butyl hydroperoxide (0.09 mL in PBS; final concentration 1 mM) was then added and the mixture was incubated at 37 °C for 30 min. The products of lipid peroxidation were determined as thiobarbituric acid reactive substances (TBARS): 0.7 mL of […] were added, the mixture was heated (90 °C; 30 min), cooled, centrifuged (10 min; 10,000 rpm; 4 °C) and the absorbance of the supernatant at 535 nm measured. The activity was calculated as the concentration of the tested compound that inhibited the color reaction with thiobarbiturate (without the tested compound) by 50% (IC50).

[5] = system: normal human adult epidermal keratinocytes (NAK); experiment: Cytotoxicity, MTT test, NAK; format: cell-based; details: Keratinocyte, 24 h incubation, read-out: IC50 viability (MTT-reducing ability) NAK
Protocol: as §1, §2

[6] = system: human umbilical vein endothelial cells (HUVEC); experiment: Cytotoxicity, MTT test, HUVEC; format: cell-based; details: 24 h incubation, read-out: IC50 viability (MTT-reducing ability) HUVEC
Protocol: as §1, §2

[7] = system: mouse fibroblasts (BALB/c 3T3); experiment: Cytotoxicity, MTT test, BALB/c 3T3; format: cell-based; details: BALB/c3T3, 24 h incubation, read-out: IC50 viability (MTT-reducing ability) BALB/c 3T3
Protocol: as §1, §2

COc1cc([C@@H]2Oc3cc([C@H]4Oc5cc(O)cc(O)c5C(=O)[C@@H]4O)ccc3O[C@H]2COC(=O)CCCCCCCCCCC(=O)OC[C@@H]2Oc3ccc([C@H]4Oc5cc(O)cc(O)c5C(=O)[C@@H]4O)cc3O[C@H]2c2ccc(O)c(OC)c2)ccc1O [Compound 4, bis(((2S,3S)-3-(4-Hydroxy-3-methoxyphenyl)-6-((2R,3R)-3,5,7-trihydroxy-4-oxochroman-2-yl)-2,3-dihydrobenzo[b][1,4]dioxin-2-yl)methyl) dodecanedioate]
Stability during longer incubation [1]: signs of instability (decomposition) | DPPH [% of inhibition] [2]: 9.0 ± 3.0 ^a % | Oxidation potential Ep1 [3]: 0.57 V | Oxidation potential Ep2 [3]: 0.83 V

COc1cc([C@H]2Oc3cc([C@H]4Oc5cc(O)cc(O)c5C(=O)[C@@H]4O)ccc3O[C@@H]2COC(=O)CCCCCCCCCCC(=O)OC[C@@H]2Oc3ccc([C@H]4Oc5cc(O)cc(O)c5C(=O)[C@@H]4O)cc3O[C@H]2c2ccc(O)c(OC)c2)ccc1O [Compound 5, 1-(((2R,3R)-3-(4-Hydroxy-3-methoxyphenyl)-6-((2R,3R)-3,5,7-trihydroxy-4-oxochroman-2-yl)-2,3-dihydrobenzo[b][1,4]dioxin-2-yl)methyl) 12-(((2S,3S)-3-(4-hydroxy-3-methoxyphenyl)-6-((2R,3R)-3,5,7-trihydroxy-4-oxochroman-2-yl)-2,3-dihydrobenzo[b][1,4]dioxin-2-yl)methyl) dodecanedioate]
Stability during longer incubation [1]: signs of instability (decomposition) | DPPH [% of inhibition] [2]: 7.0 ± 2.9 ^a % | Oxidation potential Ep1 [3]: 0.55 V | Oxidation potential Ep2 [3]: 0.83 V

COc1cc(C2Oc3cc(-c4oc5cc(O)cc(O)c5c(=O)c4O)ccc3OC2COC(=O)CCCCCCCCCCC(=O)OCC2Oc3ccc(-c4oc5cc(O)cc(O)c5c(=O)c4O)cc3OC2c2ccc(O)c(OC)c2)ccc1O (stereo not shown) [Compound 7, bis((3-(4-Hydroxy-3-methoxyphenyl)-6-(3,5,7-trihydroxy-4-oxo-4H-chromen-2-yl)-2,3-dihydrobenzo-[b][1,4]dioxin-2-yl)methyl) dodecanedioate]
IC50 (HepG2 cells): 172 ± 11.6 µM | IC50 at 24 h [4]: 99 to 173 µM | IC50 (rat liver microsomes): 59.2 ± 5.9 µM | IC50 ([2]; 20 µM DPPH, 30 min): 29 ± 0.7 µM | DPPH [% of inhibition] [2]: 33.4 ± 3.1 ^c % | IC50 [5]: > 200 µM | IC50 [6]: 98.4 ± 10.6 µM | IC50 [7]: 161 ± 9 µM | Oxidation potential Ep1 [3]: 0.57 V | Oxidation potential Ep2 [3]: 0.99 V | Adsorption onto the electrode ([3]; ex situ (adsorptive transfer) SWV, open circuit potential): strictly limited and practically impossible
